“Also recorded” adds a separate entry of the source.
Tested on: K7M2-luc2 pOS (VCAM-1/α4β1 interaction)
Assay: Established pOS after K7M2-luc2 i.v., weekly intranasal blockade of VCAM-1/a4 from Day 7
Format: in vivo, Balb/c mice
Settings: 50 μg i.n. weekly from Day 7
Protocol: FIGS. 9A-C illustrate targeting site-specific VCAM-1/a4 interaction blunted established pOS growth in vivo. (A) Balb/c mice were inoculated with 5×10^5 K7M2-luc2 i.v. on Day 0, and then treated with i.n. PBS, 50 μg iVCAM-1p, or 50 μg PS/2 (anti-a4) antibody weekly starting on Day 7. (A) representative images of mice up to 35 days. […] (C) 60% and 80% of pOS mice remained tumor free 1 month after weekly i.n. treatment with PS/2 antibody (filled circle) or iVCAM-1p (filled triangle), respectively. N=5-8 in each cohort.
To strengthen the crucial link between tVCAM-1 and α4β1 (FIGS. 5-8) and pOS survival, we performed pilot experiments to test whether direct functional blockade of VCAM-1/α4β1 interaction in the lung would result in the same pOS outcome as observed with MACs depletion. In collaboration with Nicole Steinmetz in CWRU School of Engineering, we treated mice (inoculated 7 days prior with a lethal dose of K7M2 i.v.) with weekly i.n. administration of 50 μg of a VCAM-1 inhibitory peptide (iVCAM-1p; amino acid sequence: VHPKQHR (SEQ ID NO: 1)). […] These pilot observations strengthen our hypothesis that pOS-MAC critically interact through the VCAM-1/α4 axis. […] As we administered mAb via i.n. route, much of the reported side effects of chronic systemic Natalizumab exposure (such as hepatic injury and progressive multifocal leukoencephalopathy) can potentially be limited by reducing the dose and targeting locally in the lung.

VHPKQHR [iVCAM-1p]
pOS tumor incidence: dramatic decreased
tumor burden (relative BLI intensity, Day 7 BLI set as 1): dramatic decreased; also recorded: reduced tumor burden
mice remaining tumor free (1 month after treatment): 80%

Reference: US11911468B2, “Compositions and methods of treating sarcoma lung metastasis” (CASE WESTERN RESERVE UNIVERSITY, priority 2017, dated 2024)
